Earlier results on one molecule are cited in patent publication US9358223B2, “Formulation for preventing or reducing bleeding at a surgical site” (WARSAW ORTHOPEDIC, INC., priority 2009, dated 2016).

For the data set, the system named is blood pressure. To be noted: perioperative period, patients undergoing rhytidectomy.

With `Clc1cccc(Cl)c1N=C1NCCN1` [Clonidine, 2,6-dichloro-N-2-imidazolidinyldenebenzenamine], the “regulation of blood pressure” value is reported as “effectively regulate blood pressure”.
